# Data: US6737383B1, “Herbicidal oxadiazolidines” (priority 1999, dated 2004)
# How the values were obtained:
# [1] = system: giant foxtail; assay: Test B pre/postemergence giant foxtail; type: in vivo, Setaria faberii
# In short: (§1)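 Response is a visual 0-to-10 score relative to untreated plants, where 0 means no effect and 10 means complete control, taken twelve to sixteen days after application. Treatments went onto soil at planting and onto foliage of 1- to 4-leaf plants, using a surfactant-containing non-phytotoxic solvent.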
# [2] = system: blackgrass; assay: Test B pre/postemergence blackgrass; type: in vivo, Alopecurus myosuroides
# In short: as §1
# [3] = system: rice; assay: Test B flood test rice; type: in vivo, Oryza sativa
# In short: (§2)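 Plants were grown to the 2-leaf stage before treatment with test chemical, then held in a greenhouse for twelve to sixteen days. Injury was visually rated against untreated controls on a 0–10 scale, where 0 is no effect and 10 is complete control.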
# [4] = system: wild oat; assay: Test B pre/postemergence wild oat; type: in vivo, Avena fatua
# In short: as §1
# [5] = system: smallflower flatsedge; assay: Test B flood test smallflower flatsedge; type: in vivo, Cyperus difformis
# In short: as §2
# [6] = system: corn; assay: Test B pre/postemergence corn; type: in vivo, Zea mays
# In short: as §1
# [7] = system: duck salad; assay: Test B flood test duck salad; type: in vivo, Heteranthera limosa
# In short: as §2
# [8] = system: sugar beet; assay: Test B pre/postemergence sugar beet; type: in vivo, Beta vulgaris
# In short: as §1
# [9] = system: surinam grass; assay: Test B pre/postemergence surinam grass; type: in vivo, Brachiaria decumbens
# In short: as §1
# [10] = system: soybean; assay: Test B pre/postemergence soybean; type: in vivo, Glycine max
# In short: as §1
# [11] = system: morningglory; assay: Test B pre/postemergence morningglory; type: in vivo, Ipomoea hederacea
# In short: as §1
# [12] = system: pigweed; assay: Test B pre/postemergence pigweed; type: in vivo, Amaranthus retroflexus
# In short: as §1
# [13] = system: wheat; assay: Test B pre/postemergence wheat; type: in vivo, Triticum aestivum
# In short: as §1
# [14] = system: bamyardgrass; assay: Test B flood test barnyardgrass; type: in vivo, Echinochloa crus-galli
# In short: as §2
# [15] = system: crabgrass; assay: Test B pre/postemergence crabgrass; type: in vivo, Digitaria sanguinalis
# In short: as §1
# [16] = system: purple nutsedge; assay: Test B pre/postemergence purple nutsedge; type: in vivo, Cyperus rotundus
# In short: as §1
# [17] = system: cocklebur; assay: Test B pre/postemergence cocklebur; type: in vivo, Xanthium strumarium
# In short: as §1
# [18] = system: velvetleaf; assay: Test B pre/postemergence velvetleaf; type: in vivo, Abutilon theophrasti
# In short: as §1
# [19] = system: rape; assay: Test B pre/postemergence rape; type: in vivo, Brassica napus
# In short: as §1
# [20] = system: bedstraw; assay: Test B pre/postemergence bedstraw; type: in vivo, Galium aparine; conditions: Postemergence; for Plant response rating, Bedstraw: scale 0 to 10, 0 is no effect, 10 is complete control; for Bedstraw plant response rating: scale of 0 to 10 where 0 is no effect and 10 is complete control
# In short: as §1
# [21] = Postemergence, Rate 125 g/ha, scale 0 to 10, 0 is no effect, 10 is complete control
# [22] = Postemergence, Rate 250 g/ha, scale 0 to 10, 0 is no effect, 10 is complete control
# [23] = Postemergence, Rate 500 g/ha, scale of 0 to 10 where 0 is no effect and 10 is complete control
# [24] = Preemergence, Rate 62 g/ha, scale 0 to 10 (0 no effect, 10 complete control)
# [25] = Preemergence, Rate 125 g/ha, scale of 0 to 10 where 0 is no effect and 10 is complete control
# [26] = Preemergence, Rate 250 g/ha, scale 0 to 10, 0 is no effect, 10 is complete control
# [27] = Preemergence, Rate 500 g/ha, scale 0 to 10, 0 is no effect, 10 is complete control
# [28] = Rate 62 g/ha, Postemergence, scale of 0 to 10 where 0 is no effect and 10 is complete control
# [29] = Preemergence, Rate 250 g/ha, scale of 0 to 10 where 0 is no effect and 10 is complete control
# [30] = Rate 62 g/ha, flood test species, Pre-emergence, visual evaluation after twelve to sixteen days
# [31] = Rate 125 g/ha, under heading Pre-emergence, flood test species, visual evaluation after twelve to sixteen days
# [32] = Rate 250 g/ha, Pre-emergence, flood-test species, scale 0 to 10, 0 is no effect, 10 is complete control
# [33] = Rate 500 g/ha, Pre-emergence, flood test species, scale 0 to 10 (0 no effect, 10 complete control)
smiles,measurement,setting,value
CC(C)N(C(=O)n1oc(=O)n(C)c1=O)c1ccccc1 [Compound 409],"Plant response rating, Giant foxtail",[1]; [21],8
same,"Plant response rating, Giant foxtail",[1]; [22],9
same,Giant foxtail plant response rating,[1]; [23],9
same,"Plant response rating, Giant foxtail",[1]; [24],9
same,"Plant response rating, Giant foxtail",[1]; [25],10
same,Giant foxtail plant response rating,[1]; [26],10
same,Giant foxtail plant response rating,[1]; [27],10
same,Giant foxtail plant response rating,[1]; [28],8
same,"Plant response rating, Blackgrass",[2]; [21],8
same,"Plant response rating, Blackgrass",[2]; [22],9
same,Blackgrass plant response rating,[2]; [23],10
same,"Plant response rating, Blackgrass",[2]; [24],4
same,"Plant response rating, Blackgrass",[2]; [25],7
same,Blackgrass plant response rating,[2]; [29],10
same,Blackgrass plant response rating,[2]; [27],10
same,Blackgrass plant response rating,[2]; [28],6
same,"Plant response rating, Rice (0 to 10 scale, 0 is no effect, 10 is complete control)",[3]; [30],0
same,"Rice plant response rating (0 to 10 scale, 0 is no effect, 10 is complete control)",[3]; [31],0
same,Rice plant response rating,[3]; [32],0
same,Rice plant response rating,[3]; [33],0
same,Wild oats plant response rating,[4]; [23],4
same,"Plant response rating, Wild oats",[4]; [24],0
same,"Plant response rating, Wild oats",[4]; [25],5
same,Wild oats plant response rating,[4]; [26],7
same,Wild oats plant response rating,[4]; [27],8
same,"Plant response rating, S. Flatsedge (0 to 10 scale, 0 is no effect, 10 is complete control)",[5]; [30],0
same,"S. Flatsedge plant response rating (0 to 10 scale, 0 is no effect, 10 is complete control)",[5]; [31],0
same,S. Flatsedge plant response rating,[5]; [32],2
same,S. Flatsedge plant response rating,[5]; [33],2
same,"Plant response rating, Corn",[6]; [21],5
same,"Plant response rating, Corn",[6]; [22],7
same,Corn plant response rating,[6]; [23],7
same,"Plant response rating, Corn",[6]; [24],7
same,"Plant response rating, Corn",[6]; [25],8
same,Corn plant response rating,[6]; [26],8
same,Corn plant response rating,[6]; [27],10
same,Corn plant response rating,[6]; [28],0
same,"Plant response rating, Ducksalad (0 to 10 scale, 0 is no effect, 10 is complete control)",[7]; [30],0
same,"Ducksalad plant response rating (0 to 10 scale, 0 is no effect, 10 is complete control)",[7]; [31],0
same,Ducksalad plant response rating,[7]; [32],0
same,Ducksalad plant response rating,[7]; [33],0
same,"Plant response rating, Sugarbeets",[8]; [22],0
same,Sugarbeets plant response rating,[8]; [23],0
same,"Plant response rating, Sugarbeets",[8]; [24],2
same,"Plant response rating, Sugarbeets",[8]; [25],7
same,Sugarbeets plant response rating,[8]; [26],8
same,Sugarbeets plant response rating,[8]; [27],9
same,"Plant response rating, B. signalgrass",[9]; [21],5
same,"Plant response rating, B. signalgrass",[9]; [22],8
same,B. signalgrass plant response rating,[9]; [23],9
same,"Plant response rating, B. signalgrass",[9]; [24],0
same,"Plant response rating, B. signalgrass",[9]; [25],4
same,B. signalgrass plant response rating,[9]; [29],7
same,B. signalgrass plant response rating,"[9]; Preemergence, Rate 500 g/ha, scale of 0 to 10 where 0 is no effect and 10 is complete control",9
same,B. signalgrass plant response rating,[9]; [28],3
same,"Plant response rating, Soybean",[10]; [22],5
same,Soybean plant response rating,[10]; [23],5
same,"Plant response rating, Soybean",[10]; [24],0
same,"Plant response rating, Soybean",[10]; [25],0
same,Soybean plant response rating,[10]; [26],1
same,Soybean plant response rating,[10]; [27],8
same,"Plant response rating, Morningglory",[11]; [22],9
same,Morningglory plant response rating,[11]; [23],10
same,"Plant response rating, Morningglory",[11]; [24],0
same,"Plant response rating, Morningglory",[11]; [25],2
same,Morningglory plant response rating,[11]; [26],5
same,Morningglory plant response rating,[11]; [27],5
same,"Plant response rating, Redroot pigweed",[12]; [22],4
same,Redroot pigweed plant response rating,[12]; [23],5
same,"Plant response rating, Redroot pigweed",[12]; [24],7
same,"Plant response rating, Redroot pigweed",[12]; [25],8
same,Redroot pigweed plant response rating,[12]; [26],8
same,Redroot pigweed plant response rating,[12]; [27],10
same,Wheat plant response rating,[13]; [23],7
same,"Plant response rating, Wheat",[13]; [24],4
same,"Plant response rating, Wheat",[13]; [25],8
same,Wheat plant response rating,[13]; [26],9
same,Wheat plant response rating,[13]; [27],10
same,"Plant response rating, Barnyardgrass (0 to 10 scale, 0 is no effect, 10 is complete control)",[14]; [30],1
same,"Barnyardgrass plant response rating (0 to 10 scale, 0 is no effect, 10 is complete control)",[14]; [31],2
same,Barnyardgrass plant response rating,[14]; [32],3
same,Barnyardgrass plant response rating,[14]; [33],3
same,"Plant response rating, Crabgrass",[15]; [21],9
same,"Plant response rating, Crabgrass",[15]; [22],9
same,Crabgrass plant response rating,[15]; [23],9
same,"Plant response rating, Crabgrass",[15]; [24],9
same,"Plant response rating, Crabgrass",[15]; [25],9
same,Crabgrass plant response rating,[15]; [26],10
same,Crabgrass plant response rating,[15]; [27],10
same,Crabgrass plant response rating,[15]; [28],6
same,"Plant response rating, Nutsedge",[16]; [22],0
same,Nutsedge plant response rating,[16]; [23],0
same,Nutsedge plant response rating,[16]; [26],8
same,Nutsedge plant response rating,[16]; [27],8
same,"Plant response rating, Cocklebur",[17]; [21],0
same,Cocklebur plant response rating,[17]; [23],1
same,"Plant response rating, Cocklebur",[17]; [24],0
same,"Plant response rating, Cocklebur",[17]; [25],0
same,Cocklebur plant response rating,[17]; [27],2
same,Cocklebur plant response rating,[17]; [28],0
same,"Plant response rating, Velvetleaf",[18]; [22],0
same,Velvetleaf plant response rating,[18]; [23],0
same,"Plant response rating, Velvetleaf",[18]; [24],2
same,"Plant response rating, Velvetleaf",[18]; [25],5
same,Velvetleaf plant response rating,[18]; [26],6
same,Velvetleaf plant response rating,[18]; [27],8
same,"Plant response rating, Rape",[19]; [22],3
same,"Plant response rating, Rape",[19]; [24],0
same,"Plant response rating, Rape",[19]; [25],0
same,Rape plant response rating,[19]; [26],4
same,Rape plant response rating,[19]; [27],6
same,"Plant response rating, Bedstraw",[20]; Rate 125 g/ha,2
same,"Plant response rating, Bedstraw",[20]; Rate 250 g/ha,2
same,Bedstraw plant response rating,[20]; Rate 500 g/ha,5
same,Bedstraw plant response rating,[20]; Rate 62 g/ha,0
